Data set [1] deals with MDR1 expression. Put plainly: Inhibition of cytotoxic drug-induced MDR1 expression by cytoplasmic calcium antagonists and calmodulin inhibitors. The settings on record: H9; 200 μM TMB-8. In kind it is cell-based, human.
In data set [2] the test system is MDR1 expression. Put plainly: Inhibition of AraC-induced MDR1 expression by phospholipase C inhibitors (RT-PCR). In kind it is cell-based, human. The settings on record: up to 100 μg/mL D609. The protocol: The inhibitor was added 45 min. prior to the addition of Ara C. Negative control cultures were incubated as above without the addition of either AraC or U73122.
The specificity of phospholipase C-targeted inhibition of MDR1 induction by cytotoxic drugs was determined in a comparative experiment using a known inhibitor of […] phospholipase C (PC-PLC).

For the next data set, the system named is PC-PLC. To be noted: Wiegmann et al., 1994; cited from earlier work.
In data set [3] the test system is MDR1 expression. Put plainly: Inhibition of cytotoxic drug-induced MDR1 expression by protein kinase inhibitors (cDNA-PCR). To be noted: Iso-H7; H-9 cells.
The next data set has as its system protein kinases. The settings on record: Pelosin et al., 1990; cited from earlier work.
For data set [4] the following is noted: clinical trials; Berdel et al., 1988; cited from earlier work.
Another data set deals with PKC. The settings on record: in words; cited from earlier work.
Another data set relates to tumor. To be noted: nude mice, i.p. 20 mg/kg; Grunicke et al.; cited from earlier work.
In data set [5] the test system is MDR1 expression. The settings on record: cited from earlier work.
For data set [6], the system named is hormone-refractory prostate cancer. The settings on record: continuous infusion, peak of 300 μg/mL at end of 14 days; cited from earlier work.

“Also recorded” adds a separate entry of the source.

With “8-(dimethylamino)octyl-3,4,5-trimethoxybenzoate hydrochloride [TMB-8]”, the “inhibition of AraC-induced MDR1 gene expression” value with MDR1 expression [1] is recorded as “completely abrogate the ability of AraC to induce MDR1 gene expression”. `S=C(S)OC1CC2CC1C1CCCC21` (stereo not shown) [D609, tricyclodecan-9-yl-xanthogenate potassium]: in the data set with MDR1 expression [2], the “inhibition of AraC-induced expression of MDR1” value was “without an effect; also recorded: incapable of inhibiting AraC-induced expression of MDR1”. The “concentration known to inhibit PC-PLC” value in the data set with PC-PLC was 100 µg/mL. Turning to `CC1CN(S(=O)(=O)c2cccc3cnccc23)CCN1` (stereo not shown) [Iso-H7], in the data set with MDR1 expression [3], the “inhibition of Ara-C induced MDR1 expression” value is on record as “No significant inhibition”. Also, the “weaker effect on protein kinases than H7” value in the data set with protein kinases is reported as 10 fold. As to `CCCCCCCCCCCCCCCCSCC(COC)COP(=O)([O-])OCC[N+](C)(C)C` (stereo not shown) [ilmofosine], in data set [4], the “MTD, oral administration” value is 200 mg/day.

In the case of `O=c1c(O)c(-c2ccc(O)c(O)c2)oc2cc(O)cc(O)c12` [quercetin], in the data set with PKC, the PKC inhibition entry was “inhibition of PKC activity”. Further, the “effect on anti-tumor effect of cisplatin” value in the data set on tumor is “potentiate the anti-tumor effect of cisplatin”. In addition, in the data set with MDR1 expression [5], the “effect on arsenite-induced increase in MDR1 expression” value is “prevent an increase in MDR1 expression”. For `Cc1ccc(C(=O)Nc2ccc(S(=O)(=O)O)c3cc(S(=O)(=O)O)cc(S(=O)(=O)O)c23)cc1NC(=O)c1cccc(NC(=O)Nc2cccc(C(=O)Nc3cc(C(=O)Nc4ccc(S(=O)(=O)O)c5cc(S(=O)(=O)O)cc(S(=O)(=O)O)c45)ccc3C)c2)c1` [suramin], the “activity in hormone-refractory prostate cancer” value in [6] is recorded as “has shown activity in hormone-refractory prostate cancer”.

The record behind these values is patent publication US6171786A, “Methods for preventing multidrug resistance in cancer cells” (priority 1996, dated 2001).
